In PMC6572064, “Discovery of 2-(1-(3-(4-Chloroxyphenyl)-3-oxo- propyl)pyrrolidine-3-yl)-1H-benzo[d]imidazole-4-carboxamide: A Potent Poly(ADP-ribose) Polymerase (PARP) Inhibitor for Treatment of Cancer” (Molecules, 2019):
pIC50: −log10 of the molar value. Like-named read-outs stand apart in the source and are kept apart here.

Assays:
[1] = test system: CAPAN-1 (a BRCA-2-mutated pancreatic cancer cell line); assay: Cell proliferation assay, three-day, CellTiter-Glo, CAPAN-1; format: cell-based; conditions: Homo sapiens; for pIC50: CAPAN-1, 72 h, CellTiter-Glo, read-out: CAPAN-1 IC50; for inhibition at 0.00508 µM: CAPAN-1, 0.00508 uM; for inhibition at 0.0152 µM: CAPAN-1, 0.0152 uM; for inhibition at 0.0457 µM: CAPAN-1, 0.0457 uM; for inhibition at […]: CAPAN-1, 0.14 uM; for inhibition at 0.41 µM: CAPAN-1, 0.41 uM; for inhibition at 1.23 µM: CAPAN-1, 1.23 uM; for inhibition at 3.7 µM: CAPAN-1, 3.70 uM; for inhibition at 11.11 µM: CAPAN-1, 11.11 uM; for inhibition at 33.33 µM: CAPAN-1, 33.33 uM; for inhibition at 100 µM: CAPAN-1, 100.00 uM
Method in brief: (§1)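 Luminescent ATP read-out (CellTiter-Glo, 60 min at room temperature) quantified viability after a 72 h compound exposure at 37 °C, 5% CO2. Compounds, diluted from DMSO stocks into growth medium, were added to cells plated the previous day.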

[2] = test system: MDA-MB-436 (a BRCA-1-mutated breast cancer cell line); assay: Cell proliferation assay, three-day, CellTiter-Glo, MDA-MB-436; format: cell-based; conditions: for inhibition at 0.00508 µM: MDA-MB-436, MDA-MB-436, Conc. 0.00508 uM; for inhibition at 0.0152 µM: MDA-MB-436, MDA-MB-436, Conc. 0.0152 uM; for inhibition at 0.0457 µM: MDA-MB-436, MDA-MB-436, Conc. 0.0457 uM; for inhibition at 0.41 µM: MDA-MB-436, MDA-MB-436, Conc. 0.41 uM; for inhibition at 1.23 µM: MDA-MB-436, MDA-MB-436, Conc. 1.23 uM; for inhibition at 3.7 µM: MDA-MB-436, MDA-MB-436, Conc. 3.70 uM; for inhibition at 11.11 µM: MDA-MB-436, MDA-MB-436, Conc. 11.11 uM; for inhibition at 33.33 µM: MDA-MB-436, MDA-MB-436, Conc. 33.33 uM; for inhibition at 100 µM: MDA-MB-436, MDA-MB-436, Conc. 100.00 uM
Method in brief: as §1

[3] = target: T1, PARP-2 (Homo sapiens, UniProt Q9UGN5); assay: PARP-2 inhibition assay (PARP-2 Chemiluminescent Assay Kit, BPS Bioscience); format: biochemical; conditions: 10 nM compound
T1 construct: purchased BPS Bioscience 80552
T1 sequence (Q9UGN5 whole entry): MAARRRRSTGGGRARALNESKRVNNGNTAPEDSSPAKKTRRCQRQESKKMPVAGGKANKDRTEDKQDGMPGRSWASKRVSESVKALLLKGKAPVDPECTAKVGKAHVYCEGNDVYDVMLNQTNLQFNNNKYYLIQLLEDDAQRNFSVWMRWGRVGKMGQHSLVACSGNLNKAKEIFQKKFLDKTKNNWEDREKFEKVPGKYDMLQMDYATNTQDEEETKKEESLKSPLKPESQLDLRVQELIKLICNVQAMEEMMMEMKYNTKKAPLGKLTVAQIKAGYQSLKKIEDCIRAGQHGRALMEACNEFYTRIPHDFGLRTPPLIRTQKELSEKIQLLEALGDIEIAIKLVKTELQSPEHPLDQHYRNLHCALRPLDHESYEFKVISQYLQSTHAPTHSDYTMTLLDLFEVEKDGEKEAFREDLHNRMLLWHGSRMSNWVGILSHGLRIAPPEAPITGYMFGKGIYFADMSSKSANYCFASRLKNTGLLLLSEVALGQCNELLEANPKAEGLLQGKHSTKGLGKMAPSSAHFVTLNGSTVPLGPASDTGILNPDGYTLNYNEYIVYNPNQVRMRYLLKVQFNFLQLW
Description: (§2) The PARP-1 and PARP-2 inhibition assays were performed in outsourcing, by a CRO company, Shanghai Medicilon Inc. (Shanghai, China). […] Briefly, PARP-1 or PARP-2 biotinylated substrate was incubated with compounds or solvent control at varying concentrations and an assay buffer containing the PARP-1 or PARP-2 enzyme.

[4] = target: T2, PARP-1 (Homo sapiens, UniProt P09874); assay: PARP-1 inhibition assay (PARP-1 Chemiluminescent Assay Kit, BPS Bioscience); format: biochemical; conditions: 10 nM compound
T2 construct: purchased BPS Bioscience 80569
T2 sequence (P09874 whole entry): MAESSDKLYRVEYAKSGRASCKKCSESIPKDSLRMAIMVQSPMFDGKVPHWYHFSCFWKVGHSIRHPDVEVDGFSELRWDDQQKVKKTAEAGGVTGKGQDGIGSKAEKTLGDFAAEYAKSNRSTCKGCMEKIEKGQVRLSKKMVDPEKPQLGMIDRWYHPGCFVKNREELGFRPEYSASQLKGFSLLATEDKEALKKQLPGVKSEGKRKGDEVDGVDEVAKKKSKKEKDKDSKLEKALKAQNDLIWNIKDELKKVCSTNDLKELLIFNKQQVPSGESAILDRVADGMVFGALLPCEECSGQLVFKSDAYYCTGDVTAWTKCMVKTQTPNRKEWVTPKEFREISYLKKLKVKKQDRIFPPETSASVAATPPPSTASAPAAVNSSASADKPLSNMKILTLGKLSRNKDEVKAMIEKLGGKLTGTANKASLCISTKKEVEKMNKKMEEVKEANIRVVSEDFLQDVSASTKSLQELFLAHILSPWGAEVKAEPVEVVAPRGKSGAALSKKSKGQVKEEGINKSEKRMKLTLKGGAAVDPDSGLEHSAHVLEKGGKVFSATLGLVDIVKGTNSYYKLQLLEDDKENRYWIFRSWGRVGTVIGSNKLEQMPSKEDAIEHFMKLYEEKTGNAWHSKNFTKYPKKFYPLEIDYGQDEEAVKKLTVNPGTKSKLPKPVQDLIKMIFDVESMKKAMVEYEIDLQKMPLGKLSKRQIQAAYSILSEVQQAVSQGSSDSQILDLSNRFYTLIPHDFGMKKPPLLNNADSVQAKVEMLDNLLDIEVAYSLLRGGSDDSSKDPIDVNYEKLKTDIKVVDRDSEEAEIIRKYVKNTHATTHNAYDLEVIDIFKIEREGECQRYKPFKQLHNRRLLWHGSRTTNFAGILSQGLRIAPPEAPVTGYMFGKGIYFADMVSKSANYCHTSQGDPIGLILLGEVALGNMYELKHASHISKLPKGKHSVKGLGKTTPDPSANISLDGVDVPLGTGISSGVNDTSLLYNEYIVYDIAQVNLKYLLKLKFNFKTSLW
Description: as §2

[5] = Homo sapiens, replicate 1, read-out: Inh % 1
[6] = Homo sapiens, replicate 2, read-out: Inh % 2
[7] = Homo sapiens, MDA-MB-436, 72 h, CellTiter-Glo, read-out: MDA-MB-436 IC50
[8] = supplement sheet, read-out: 10 nM inhibition% PAPR-2
[9] = read-out: PARP-2 Inhibition % (10 nM)
[10] = supplement sheet, read-out: 10 nM inhibition% PAPR-1
[11] = read-out: PARP-1 Inhibition % (10 nM)

NC(=O)c1cccc2[nH]c(C3CCN(CCCN4C(=O)c5ccccc5C4=O)C3)nc12 (centres unmarked) [Compound 5ce, 2-(1-(3-(1,3-Dioxoisoindolin-2-yl)propyl)pyrrolidin-3-yl)-1H-benzo[d]imidazole-4-carboxamide]
pIC50 [1]: < 4.00
inhibition at 0.00508 µM ([1]; replicate 1, read-out: Inh % 1): -4.4%
inhibition at 0.00508 µM ([1]; replicate 2, read-out: Inh % 2): 0.4%
inhibition at 0.0152 µM ([1]; replicate 1, read-out: Inh % 1): -2.3%
inhibition at 0.0152 µM ([1]; replicate 2, read-out: Inh % 2): -0.9%
inhibition at 0.0457 µM ([1]; replicate 1, read-out: Inh % 1): 1.8%
inhibition at 0.0457 µM ([1]; replicate 2, read-out: Inh % 2): 10%
inhibition at […] ([1]; replicate 1, read-out: Inh % 1): -0.6%
inhibition at […] ([1]; replicate 2, read-out: Inh % 2): -2.2%
inhibition at 0.41 µM ([1]; replicate 1, read-out: Inh % 1): 12.8%
inhibition at 0.41 µM ([1]; replicate 2, read-out: Inh % 2): 3.7%
inhibition at 1.23 µM ([1]; replicate 1, read-out: Inh % 1): 7.5%
inhibition at 1.23 µM ([1]; replicate 2, read-out: Inh % 2): 3.7%
inhibition at 3.7 µM ([1]; replicate 1, read-out: Inh % 1): 6.8%
inhibition at 3.7 µM ([1]; replicate 2, read-out: Inh % 2): 9.9%
inhibition at 11.11 µM ([1]; replicate 1, read-out: Inh % 1): 13.7%
inhibition at 11.11 µM ([1]; replicate 2, read-out: Inh % 2): -0.541%
inhibition at 33.33 µM ([1]; replicate 1, read-out: Inh % 1): 11%
inhibition at 33.33 µM ([1]; replicate 2, read-out: Inh % 2): 3.9%
inhibition at 100 µM ([1]; replicate 1, read-out: Inh % 1): 6.1%
inhibition at 100 µM ([1]; replicate 2, read-out: Inh % 2): 4.5%
inhibition at 0.00508 µM [2, 5]: 20.1%
inhibition at 0.00508 µM [2, 6]: 0.9%
inhibition at 0.0152 µM [2, 5]: -2.8%
inhibition at 0.0152 µM [2, 6]: -5%
inhibition at 0.0457 µM [2, 5]: -11.2%
inhibition at 0.0457 µM [2, 6]: -11.9%
inhibition at 0.41 µM [2, 5]: -6.1%
inhibition at 0.41 µM [2, 6]: -15.6%
inhibition at 1.23 µM [2, 5]: -8.9%
inhibition at 1.23 µM [2, 6]: -17.5%
inhibition at 3.7 µM [2, 5]: -1.2%
inhibition at 3.7 µM [2, 6]: -9.2%
inhibition at 11.11 µM [2, 5]: 15.7%
inhibition at 11.11 µM [2, 6]: -2.9%
inhibition at 33.33 µM [2, 5]: -10.9%
inhibition at 33.33 µM [2, 6]: -11%
inhibition at 100 µM [2, 5]: 0.113%
inhibition at 100 µM [2, 6]: -9.4%
pIC50 [2, 7]: < 4.00
inhibition at 0.01 µM [3, 8]: 74.6%
inhibition at 0.01 µM [3, 9]: 74.5%
inhibition at 0.01 µM [4, 10]: 22%
inhibition at 0.01 µM [4, 11]: 22%

NC(=O)c1cccc2[nH]c(C3CCN(CC(O)c4ccccc4)C3)nc12 (centres unmarked) [Compound 5cf, 2-(1-(2-Hydroxy-2-phenylethyl)pyrrolidin-3-yl)-1H-benzo[d]imidazole-4-carboxamide]
pIC50 [1]: < 4.00
inhibition at 0.00508 µM ([1]; replicate 1, read-out: Inh % 1): -1.7%
inhibition at 0.00508 µM ([1]; replicate 2, read-out: Inh % 2): -8.4%
inhibition at 0.0152 µM ([1]; replicate 1, read-out: Inh % 1): 3.2%
inhibition at 0.0152 µM ([1]; replicate 2, read-out: Inh % 2): -3.1%
inhibition at 0.0457 µM ([1]; replicate 1, read-out: Inh % 1): -6.9%
inhibition at 0.0457 µM ([1]; replicate 2, read-out: Inh % 2): -3.4%
inhibition at […] ([1]; replicate 1, read-out: Inh % 1): 10.3%
inhibition at […] ([1]; replicate 2, read-out: Inh % 2): -1.9%
inhibition at 0.41 µM ([1]; replicate 1, read-out: Inh % 1): 9.4%
inhibition at 0.41 µM ([1]; replicate 2, read-out: Inh % 2): 0.649%
inhibition at 1.23 µM ([1]; replicate 1, read-out: Inh % 1): 5.9%
inhibition at 1.23 µM ([1]; replicate 2, read-out: Inh % 2): 8.1%
inhibition at 3.7 µM ([1]; replicate 1, read-out: Inh % 1): 13.8%
inhibition at 3.7 µM ([1]; replicate 2, read-out: Inh % 2): 3.5%
inhibition at 11.11 µM ([1]; replicate 1, read-out: Inh % 1): 7.2%
inhibition at 11.11 µM ([1]; replicate 2, read-out: Inh % 2): -0.268%
inhibition at 33.33 µM ([1]; replicate 1, read-out: Inh % 1): 15.8%
inhibition at 33.33 µM ([1]; replicate 2, read-out: Inh % 2): -1.9%
inhibition at 100 µM ([1]; replicate 1, read-out: Inh % 1): 29.7%
inhibition at 100 µM ([1]; replicate 2, read-out: Inh % 2): 21.1%
inhibition at 0.00508 µM [2, 5]: -0.144%
inhibition at 0.00508 µM [2, 6]: -3.2%
inhibition at 0.0152 µM [2, 5]: -5.7%
inhibition at 0.0152 µM [2, 6]: -4.4%
inhibition at 0.0457 µM [2, 5]: -8.5%
inhibition at 0.0457 µM [2, 6]: -9.4%
inhibition at 0.41 µM [2, 5]: -14.6%
inhibition at 0.41 µM [2, 6]: -10.9%
inhibition at 1.23 µM [2, 5]: -9.9%
inhibition at 1.23 µM [2, 6]: -7%
inhibition at 3.7 µM [2, 5]: 1.6%
inhibition at 3.7 µM [2, 6]: -6.5%
inhibition at 11.11 µM [2, 5]: -3.4%
inhibition at 11.11 µM [2, 6]: -9.3%
inhibition at 33.33 µM [2, 5]: 17.3%
inhibition at 33.33 µM [2, 6]: 8.3%
inhibition at 100 µM [2, 5]: 86.9%
inhibition at 100 µM [2, 6]: 70.9%
pIC50 [2, 7]: 4.21
pIC50 ([2]; Homo sapiens, MDA-MB-436, 72 h, supplement Summary sheet, read-out: IC50): 4.21
IC50 ([2]; Homo sapiens, MDA-MB-436, curve fit list, no unit in the cell, concentration in uM, read-out: IC50): 61 µM
LogIC50 ([2]; MDA-MB-436, curve fit on Log (uM) concentrations): 1.786
Top ([2]; MDA-MB-436, curve fit parameter (Inh %), '= 100.0' is a constrained value): 104.3
inhibition at 0.01 µM [3, 8]: 8.96%
inhibition at 0.01 µM [3, 9]: 9%
inhibition at 0.01 µM [4, 10]: 5.03%
inhibition at 0.01 µM [4, 11]: 5%
